According to patent US9962369B2, “Methods and compositions for transdermal delivery” (SPRAYABLE HOLDINGS, INC., priority 2014, dated 2018):

Experiment: Transdermal delivery of melatonin: plasma level of melatonin after applying composition to skin of a subject
Conditions: human, plasma, topical, 3 mg, Plasma level of melatonin; for concentration at 4 h / concentration at 4 hr: 4 hr after transdermal administration; for concentration at 8 h / concentration at 8 hr: 8 hr after transdermal administration; for concentration at 0 h / concentration at 0 hr: 0 hr after transdermal administration; for concentration at 1 h / concentration at 1 hr: 1 hr after transdermal administration; for concentration at 2 h / concentration at 2 hr: 2 hr after transdermal administration; for concentration at 0 hr / concentration at 1 hr / concentration at 2 hr / concentration at 4 hr / concentration at 8 hr: 0.30 mL applied to skin
[1] = Table 20 control, A− N/A, helper esters 0 mM, 2.0 mL applied
[2] = Tryptophan butyl ester hydrochloride 235.90 mM, 0.3 mL applied to skin
[3] = Tryptophan ethyl ester hydrochloride 260.47 mM, 0.3 mL applied to skin
[4] = Tryptophan isopropyl ester hydrochloride 247.52 mM, 0.3 mL applied to skin
[5] = Tyrosine isopropyl ester 269.50 mM
[6] = Tyrosine pentyl ester 243.25 mM
[7] = salt of tryptophan isopropyl ester, A− = AcO^−, 228.48 mM, 0.30 mL applied
[8] = salt of tryptophan isopropyl ester, A− = Benzoate ion, 189.98 mM, 0.30 mL applied
[9] = salt of tryptophan isopropyl ester, A− = Br^−, 220.92 mM, 0.30 mL applied
[10] = salt of tryptophan isopropyl ester, A− = Citrate ion, 159.67 mM, 0.30 mL applied

concentration at 4 h [1]: 0.1 ng/mL
concentration at 8 h [1]: 0.1 ng/mL
concentration at 0 h [2]: 0 ng/mL
concentration at 1 h [2]: 1.8 ng/mL
concentration at 2 h [2]: 1.9 ng/mL
concentration at 4 h [2]: 1.7 ng/mL
concentration at 8 h [2]: 1.7 ng/mL
concentration at 0 h [3]: 0 ng/mL
concentration at 1 h [3]: 2 ng/mL
concentration at 2 h [3]: 2.2 ng/mL
concentration at 4 h [3]: 1.9 ng/mL
concentration at 8 h [3]: 1.8 ng/mL
concentration at 2 h [4]: 2.8 ng/mL
concentration at 4 h [4]: 2.7 ng/mL
concentration at 8 h [4]: 2.5 ng/mL
concentration at 0 hr [5]: 0 ng/mL
concentration at 1 hr [5]: 2.1 ng/mL
concentration at 2 hr [5]: 2.9 ng/mL
concentration at 4 hr [5]: 2.7 ng/mL
concentration at 8 hr [5]: 2.8 ng/mL
concentration at 0 hr [6]: 0 ng/mL
concentration at 1 hr [6]: 1.8 ng/mL
concentration at 2 hr [6]: 2.1 ng/mL
concentration at 4 hr [6]: 2.2 ng/mL
concentration at 8 hr [6]: 2.1 ng/mL
concentration at 0 hr (Tyrosine propyl ester 269.5 mM): 0 ng/mL
concentration at 1 hr (Tyrosine propyl ester 269.5 mM): 2 ng/mL
concentration at 2 hr (Tyrosine propyl ester 269.5 mM): 2.5 ng/mL
concentration at 4 hr (Tyrosine propyl ester 269.5 mM): 2.6 ng/mL
concentration at 8 hr (Tyrosine propyl ester 269.5 mM): 2.6 ng/mL
concentration at 0 h [7]: 0 ng/mL
concentration at 1 h [7]: 1.9 ng/mL
concentration at 2 h [7]: 2.2 ng/mL
concentration at 4 h [7]: 2.1 ng/mL
concentration at 8 h [7]: 2 ng/mL
concentration at 0 h [8]: 0 ng/mL
concentration at 1 h [8]: 1.8 ng/mL
concentration at 2 h [8]: 1.8 ng/mL
concentration at 4 h [8]: 2 ng/mL
concentration at 8 h [8]: 1.7 ng/mL
concentration at 0 h [9]: 0 ng/mL
concentration at 1 h [9]: 2.4 ng/mL
concentration at 2 h [9]: 2.9 ng/mL
concentration at 4 h [9]: 2.6 ng/mL
concentration at 8 h [9]: 2.6 ng/mL
concentration at 0 h [10]: 0 ng/mL
concentration at 1 h [10]: 2.1 ng/mL
concentration at 2 h [10]: 2.3 ng/mL
concentration at 4 h [10]: 2.4 ng/mL
concentration at 8 h [10]: 2.1 ng/mL
concentration at 0 h (salt of tryptophan isopropyl ester, A− = Cl^−, 247.52 mM, 0.30 mL applied): 0 ng/mL
SMILES: COc1ccc2[nH]cc(CCNC(C)=O)c2c1 [Melatonin]
